This is an account of results in US20250230147A1, “LACTAMS AS CBL-B INHIBITORS” (Genentech, Inc., priority 2021, published 2025).

In general, IC50 refers to the midpoint of a concentration-inhibition curve. The low end stands for inhibition by little substance, the high end for a need for much substance.

The target of one experiment is Cbl-b (Homo sapiens (Human), UniProt Q13191). Kind of experiment: Cbl-b LCK Ub TR-FRET assay (Cbl-b Lck HTRF). It is filed as biochemical. In outline:
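TR-FRET (340 nm excitation, 615/665 nm emission) read after adding HA-ubiquitin–UBE2D2 thioester, anti-HA-D2 and streptavidin-Eu. Beforehand, compounds incubated 60 min with biotinylated Cbl-b, then 90 min with His-LCK and ATP (1 mM in 2× mix); IC50 from 10 concentrations, DMSO high and no-LCK low controls.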

For the next experiment, the target named is c-Cbl (Homo sapiens (Human), UniProt P22681). Kind of experiment: C-Cbl LCK Ub TR-FRET assay (c-cbl Lck HTRF). It is filed as biochemical. Conditions: for (fold-selectivity): C-cbl Lck HTRF IC50 relative to Cbl-b Lck HTRF IC50. In outline:
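Detection reagents added, brief spin, 20 min RT. IC50 fit normalized to no-LCK (low) and DMSO (high) controls.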
A general note: In TR-FRET formats the signal depends on donor and acceptor labels being close together.

Sequence of c-Cbl (P22681 47-435): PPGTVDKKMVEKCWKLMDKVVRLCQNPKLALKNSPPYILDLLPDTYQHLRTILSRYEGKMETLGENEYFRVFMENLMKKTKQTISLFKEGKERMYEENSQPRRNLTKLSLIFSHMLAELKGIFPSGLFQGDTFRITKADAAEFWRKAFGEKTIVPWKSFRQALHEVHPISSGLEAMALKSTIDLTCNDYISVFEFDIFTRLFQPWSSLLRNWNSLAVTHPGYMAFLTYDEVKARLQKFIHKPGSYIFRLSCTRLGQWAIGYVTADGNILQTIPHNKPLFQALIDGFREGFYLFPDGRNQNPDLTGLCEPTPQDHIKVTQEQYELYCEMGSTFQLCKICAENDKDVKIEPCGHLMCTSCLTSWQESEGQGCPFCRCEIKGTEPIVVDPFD
Sequence of Cbl-b (Q13191 40-426): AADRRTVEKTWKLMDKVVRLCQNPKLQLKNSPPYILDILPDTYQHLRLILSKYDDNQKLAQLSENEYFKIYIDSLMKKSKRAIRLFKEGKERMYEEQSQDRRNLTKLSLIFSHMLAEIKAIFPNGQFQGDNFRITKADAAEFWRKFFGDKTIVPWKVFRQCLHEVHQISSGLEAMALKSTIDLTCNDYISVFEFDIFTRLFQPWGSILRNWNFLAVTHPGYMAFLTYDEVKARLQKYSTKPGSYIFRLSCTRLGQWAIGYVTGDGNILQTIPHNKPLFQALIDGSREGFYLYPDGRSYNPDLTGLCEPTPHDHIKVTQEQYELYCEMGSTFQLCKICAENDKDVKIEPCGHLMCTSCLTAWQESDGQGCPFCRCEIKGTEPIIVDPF

`COCC1(O)CN(Cc2cc3c(c(C(F)(F)F)c2)CN(c2cccc(C4([C@@H](F)c5nncn5C)COC4)c2)C3=O)C1` [Compound 185, (R)-2-(3-(3-(fluoro(4-methyl-4H-1,2,4-triazol-3-yl)methyl)oxetan-3-yl)phenyl)-6-((3-hydroxy-3-(methoxymethyl)azetidin-1-yl)methyl)-4-(trifluoromethyl)isoindolin-1-one] showed a concentration for half-maximal inhibition (IC50) against Cbl-b of 72 nM. In addition, at c-Cbl, the IC50 was determined as 110 nM and the “(fold-selectivity)” value turned out to be 1.5x.

As for `COCC1(O)CN(Cc2cc3c(c(C(F)(F)F)c2)CN(c2cccc(C4([C@H](F)c5nncn5C)COC4)c2)C3=O)C1` [Compound 186, (S)-2-(3-(3-(fluoro(4-methyl-4H-1,2,4-triazol-3-yl)methyl)oxetan-3-yl)phenyl)-6-((3-hydroxy-3-(methoxymethyl)azetidin-1-yl)methyl)-4-(trifluoromethyl)isoindolin-1-one], the IC50 against Cbl-b came out at 110 nM. For the same compound, at c-Cbl, half-maximal inhibition (IC50) required 200 nM and the “(fold-selectivity)” value turned out to be 1.7x.

Compound `CC(C)[C@H]1CN(C)CCN1Cc1cc2c(c(C(F)(F)F)c1)CN(c1cccc(C3([C@H](F)c4nncn4C)COC3)c1)C2=O` [Compound 188, 2-(3-(3-((S)-fluoro(4-methyl-4H-1,2,4-triazol-3-yl)methyl)oxetan-3-yl)phenyl)-6-(((S)-2-isopropyl-4-methylpiperazin-1-yl)methyl)-4-(trifluoromethyl)isoindolin-1-one] displayed an IC50 at Cbl-b of 13 nM. At c-Cbl, the IC50 was found to be 25 nM and the “(fold-selectivity)” value is given as 2.0x.

Consider `CC(C)[C@H]1CN(C)CCN1Cc1cc2c(c(C(F)(F)F)c1)CN(c1cccc(C3([C@H](F)c4nncn4C)CC(F)(F)C3)c1)C2=O` [Compound 190, 2-(3-(3,3-difluoro-1-((S)-fluoro(4-methyl-4H-1,2,4-triazol-3-yl)methyl)cyclobutyl)phenyl)-6-(((S)-2-isopropyl-4-methylpiperazin-1-yl)methyl)-4-(trifluoromethyl)isoindolin-1-one], for which the 50% inhibitory concentration (IC50) against Cbl-b was found to be 47 nM; at c-Cbl, 38 nM. The “(fold-selectivity)” value on c-Cbl was found to be 0.82x.

On to `C[C@@H](N)c1cc2c(c(C(F)(F)F)c1)CN(c1cccc(C3([C@@H](F)c4nncn4C)COC3)c1)C2=O` [Compound 191, 6-((R)-1-aminoethyl)-2-(3-(3-((R)-fluoro(4-methyl-4H-1,2,4-triazol-3-yl)methyl)oxetan-3-yl)phenyl)-4-(trifluoromethyl)isoindolin-1-one], for which, on Cbl-b, it took 35 nM to reach half-maximal inhibition (IC50). Also, on c-Cbl, the 50% inhibitory concentration (IC50) came out at 52 nM and the “(fold-selectivity)” value was 1.5x.

Take `C[C@H](N)c1cc2c(c(C(F)(F)F)c1)CN(c1cccc(C3([C@@H](F)c4nncn4C)COC3)c1)C2=O` [Compound 192, 6-((S)-1-aminoethyl)-2-(3-(3-((R)-fluoro(4-methyl-4H-1,2,4-triazol-3-yl)methyl)oxetan-3-yl)phenyl)-4-(trifluoromethyl)isoindolin-1-one]: half-maximal inhibition against Cbl-b (IC50) was put at 32 nM. Further, on c-Cbl, the IC50 stood at 53 nM and the “(fold-selectivity)” value stood at 1.6x.

Consider `CC(=O)N1CCN(Cc2cc3c(c(C(F)(F)F)c2)CN(c2cccc(C4([C@@H](F)c5nncn5C)COC4)c2)C3=O)[C@@H](C(C)C)C1` [Compound 193, 6-(((S)-4-acetyl-2-isopropylpiperazin-1-yl)methyl)-2-(3-(3-((R)-fluoro(4-methyl-4H-1,2,4-triazol-3-yl)methyl)oxetan-3-yl)phenyl)-4-(trifluoromethyl)isoindolin-1-one], for which the values for the 50% inhibitory concentration (IC50) against Cbl-b and against c-Cbl were 72 nM and 190 nM, respectively. For the same compound, on c-Cbl, the “(fold-selectivity)” value was found to be 2.6x.

In turn, `CC(=O)N1CCN(Cc2cc3c(c(C(F)(F)F)c2)CN(c2cccc(C4([C@H](F)c5nncn5C)COC4)c2)C3=O)[C@@H](C(C)C)C1` [Compound 194, 6-(((S)-4-acetyl-2-isopropylpiperazin-1-yl)methyl)-2-(3-(3-((S)-fluoro(4-methyl-4H-1,2,4-triazol-3-yl)methyl)oxetan-3-yl)phenyl)-4-(trifluoromethyl)isoindolin-1-one] registered a 50% inhibitory concentration (IC50) on Cbl-b of 270 nM. For the same compound, at c-Cbl, inhibition was half-maximal at 810 nM (IC50) and the “(fold-selectivity)” value was determined as 3.0x.

On to `CC(C)[C@H]1CN(S(C)(=O)=O)CCN1Cc1cc2c(c(C(F)(F)F)c1)CN(c1cccc(C3([C@@H](F)c4nncn4C)COC3)c1)C2=O` [Compound 195, 2-(3-(3-((R)-fluoro(4-methyl-4H-1,2,4-triazol-3-yl)methyl)oxetan-3-yl)phenyl)-6-(((S)-2-isopropyl-4-(methylsulfonyl)piperazin-1-yl)methyl)-4-(trifluoromethyl)isoindolin-1-one], for which the figures for the IC50 against Cbl-b and on c-Cbl were 53 nM and 110 nM, respectively. At c-Cbl, the “(fold-selectivity)” value was determined as 2.0x.

`CC(C)[C@H]1CN(S(C)(=O)=O)CCN1Cc1cc2c(c(C(F)(F)F)c1)CN(c1cccc(C3([C@H](F)c4nncn4C)COC3)c1)C2=O` [Compound 196, 2-(3-(3-((S)-fluoro(4-methyl-4H-1,2,4-triazol-3-yl)methyl)oxetan-3-yl)phenyl)-6-(((S)-2-isopropyl-4-(methylsulfonyl)piperazin-1-yl)methyl)-4-(trifluoromethyl)isoindolin-1-one] showed a 50% inhibitory concentration (IC50) against Cbl-b of 240 nM. On c-Cbl, the IC50 amounted to 660 nM and the “(fold-selectivity)” value is 2.8x.

On to `CC(C)[C@H]1CN(CCF)CCN1Cc1cc2c(c(C(F)(F)F)c1)CN(c1cccc(C3([C@@H](F)c4nncn4C)COC3)c1)C2=O` [Compound 197, 2-(3-(3-((R)-fluoro(4-methyl-4H-1,2,4-triazol-3-yl)methyl)oxetan-3-yl)phenyl)-6-(((S)-4-(2-fluoroethyl)-2-isopropylpiperazin-1-yl)methyl)-4-(trifluoromethyl)isoindolin-1-one], for which the half-maximal inhibitory concentration (IC50) at Cbl-b amounted to 8 nM. At c-Cbl, the half-inhibitory concentration (IC50) was found to be 13 nM and the “(fold-selectivity)” value was found to be 1.6x.

In turn, `CC(C)[C@H]1CN(CCF)CCN1Cc1cc2c(c(C(F)(F)F)c1)CN(c1cccc(C3([C@H](F)c4nncn4C)COC3)c1)C2=O` [Compound 198, 2-(3-(3-((S)-fluoro(4-methyl-4H-1,2,4-triazol-3-yl)methyl)oxetan-3-yl)phenyl)-6-(((S)-4-(2-fluoroethyl)-2-isopropylpiperazin-1-yl)methyl)-4-(trifluoromethyl)isoindolin-1-one] yielded a concentration for half-maximal inhibition (IC50) against Cbl-b of 14 nM. Moreover, at c-Cbl, the 50% inhibitory concentration (IC50) is 21 nM and the “(fold-selectivity)” value worked out at 1.5x.

With `CC(C)[C@H]1CN(C2COC2)CCN1Cc1cc2c(c(C(F)(F)F)c1)CN(c1cccc(C3([C@H](F)c4nncn4C)COC3)c1)C2=O` [Compound 199, 2-(3-(3-((S)-fluoro(4-methyl-4H-1,2,4-triazol-3-yl)methyl)oxetan-3-yl)phenyl)-6-(((S)-2-isopropyl-4-(oxetan-3-yl)piperazin-1-yl)methyl)-4-(trifluoromethyl)isoindolin-1-one], the IC50 against Cbl-b turned out to be 19 nM; at c-Cbl, 56 nM. Besides, the “(fold-selectivity)” value on c-Cbl is 2.9x.

Consider `CC(C)[C@H]1CN(C2COC2)CCN1Cc1cc2c(c(C(F)(F)F)c1)CN(c1cccc(C3([C@@H](F)c4nncn4C)COC3)c1)C2=O` [Compound 200, 2-(3-(3-((R)-fluoro(4-methyl-4H-1,2,4-triazol-3-yl)methyl)oxetan-3-yl)phenyl)-6-(((S)-2-isopropyl-4-(oxetan-3-yl)piperazin-1-yl)methyl)-4-(trifluoromethyl)isoindolin-1-one], for which the figures for the 50% inhibitory concentration (IC50) against Cbl-b and against c-Cbl were 27 nM and 39 nM, respectively. Also, the “(fold-selectivity)” value on c-Cbl came out at 1.5x.

In turn, `CC(C)[C@H]1CN(CC(F)(F)F)CCN1Cc1cc2c(c(C(F)(F)F)c1)CN(c1cccc(C3([C@H](F)c4nncn4C)COC3)c1)C2=O` [Compound 201, 2-(3-(3-((S)-fluoro(4-methyl-4H-1,2,4-triazol-3-yl)methyl)oxetan-3-yl)phenyl)-6-(((S)-2-isopropyl-4-(2,2,2-trifluoroethyl)piperazin-1-yl)methyl)-4-(trifluoromethyl)isoindolin-1-one] had a half-inhibitory concentration (IC50) against Cbl-b of 220 nM. This compound came in with a fold of selectivity at Cbl-b (Cbl-b over c-Cbl, Lck HTRF IC50) of 13.6x. On c-Cbl, it took 3000 nM to reach half-maximal inhibition (IC50) and the “(fold-selectivity)” value is recorded as 13 x.

`CC(C)[C@H]1CN(CC(F)(F)F)CCN1Cc1cc2c(c(C(F)(F)F)c1)CN(c1cccc(C3([C@@H](F)c4nncn4C)COC3)c1)C2=O` [Compound 202, 2-(3-(3-((R)-fluoro(4-methyl-4H-1,2,4-triazol-3-yl)methyl)oxetan-3-yl)phenyl)-6-(((S)-2-isopropyl-4-(2,2,2-trifluoroethyl)piperazin-1-yl)methyl)-4-(trifluoromethyl)isoindolin-1-one] returned a concentration for half-maximal inhibition (IC50) at Cbl-b of 150 nM. Besides, at c-Cbl, the IC50 is 400 nM and the “(fold-selectivity)” value stood at 2.6x.

`Cn1cnnc1[C@H](F)C1(c2cccc(N3Cc4c(Br)cccc4C3=O)c2)COC1` [Compound 203, (R)-4-bromo-2-(3-(3-(fluoro(4-methyl-4H-1,2,4-triazol-3-yl)methyl)oxetan-3-yl)phenyl)isoindolin-1-one] returned an IC50 at Cbl-b of 200 nM. In addition, on c-Cbl, the 50% inhibitory concentration (IC50) was 400 nM and the “(fold-selectivity)” value was 2.0x.

`Cn1cnnc1[C@H](F)C1(c2cccc(N3Cc4c(Cl)cccc4C3=O)c2)COC1` [Compound 204, (R)-4-chloro-2-(3-(3-(fluoro(4-methyl-4H-1,2,4-triazol-3-yl)methyl)oxetan-3-yl)phenyl)isoindolin-1-one] registered an IC50 at Cbl-b of 210 nM. In addition, at c-Cbl, the IC50 turned out to be 660 nM and the “(fold-selectivity)” value is given as 3.1x.

For the compound `Cn1cnnc1[C@H](F)C1(c2cccc(N3Cc4c(I)cccc4C3=O)c2)COC1` [Compound 205, (R)-2-(3-(3-(fluoro(4-methyl-4H-1,2,4-triazol-3-yl)methyl)oxetan-3-yl)phenyl)-4-iodoisoindolin-1-one], the concentration for half-maximal inhibition (IC50) against Cbl-b is 290 nM. At c-Cbl, half-maximal inhibition (IC50) was put at 770 nM and the “(fold-selectivity)” value is recorded as 2.7x.
